Source: publication PMC12274187, “Novel polycyclic meroterpenoids with protein tyrosine phosphatase 1B inhibitory activity isolated from desert-derived fungi Talaromyces sp. HMT-8” (Natural Products and Bioprospecting, 2025)
Values joined by “and” are separate entries in the source; they are usually repeats but may differ in a detail not shown here. Identical values can stand only once.

Experiments:
PTP1B [1] = target: T1, PTP1B (Homo sapiens, UniProt P18031); test: PTP1B inhibitory assay (p-NPP substrate); type: biochemical; details: absorbance at 405 nm, mean ± SD, three independent experiments, read-out: IC50 against PTP1B
T1 sequence (P18031 1-435): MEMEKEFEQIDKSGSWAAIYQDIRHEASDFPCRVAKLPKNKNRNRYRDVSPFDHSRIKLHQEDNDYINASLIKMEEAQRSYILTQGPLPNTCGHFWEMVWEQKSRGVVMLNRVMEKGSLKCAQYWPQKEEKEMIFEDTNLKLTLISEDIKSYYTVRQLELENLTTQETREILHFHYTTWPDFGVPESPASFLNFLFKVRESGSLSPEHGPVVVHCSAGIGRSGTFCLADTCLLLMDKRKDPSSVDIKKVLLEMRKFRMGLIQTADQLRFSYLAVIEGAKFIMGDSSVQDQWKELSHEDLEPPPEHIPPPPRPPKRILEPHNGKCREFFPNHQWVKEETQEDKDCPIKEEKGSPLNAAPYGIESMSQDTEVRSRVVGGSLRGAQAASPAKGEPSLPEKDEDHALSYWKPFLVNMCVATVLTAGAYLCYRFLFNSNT
Method: The p-nitrophenyl phosphate (p-NPP) was used as a substrate to evaluate enzyme inhibition assays, following a previously established protocol. The final assay volume was 100 μL. The 75 μL reaction buffer containing 50 mM HEPES, 100 mM NaCl, 1 mM EDTA, and 1 mM dithiothreitol, 10 μL protein, and 5 μL sample were added to a 96-well plate and incubated at room temperature for 15 min. Subsequently, 10 μL of reaction buffer containing p-NPP was added to the reaction system. Sodium orthovanadate (Na₃VO₄) and dimethyl sulfoxide (DMSO) were used as the positive and negative controls, respectively. Enzymatic activity was determined by measuring absorbance at 405 nm. The half-maximal inhibitory concentration (IC₅₀) values were obtained from three independent experiments. The percentage of inhibition was calculated using the following equation: ODcontrol-ODblank-ODcompound-ODblank/ODcontrol-ODblank×100%

PTP1B [2] = target: T1, PTP1B; test: Inhibition kinetic analysis (Lineweaver–Burk); type: biochemical; details: for Type of inhibition of PTP1B: Lineweaver–Burk double-reciprocal plot; for Vmax in presence of compound: p-NPP substrate, increasing inhibitor concentration
Method: The experimental procedure followed that described in the enzyme inhibition assay. The data were represented using Lineweaver–Burk double-reciprocal plots. The inhibition constants (Ki and Kis) were determined from the secondary plots of the slopes and intercepts derived from the Lineweaver–Burk plots.

SMILES	IC50 (PTP1B [1])	Type of inhibition of PTP1B (PTP1B [2])	Vmax in presence of compound (PTP1B [2])
CC1Cc2c3c(cc(O)c2C(=O)O1)OC1(C)CCC(O)C2(C)CCC(=O)OC12C3 (stereo not drawn) [Compound 1, talarine K]	16.5 ± 0.6 µM		
CC1Cc2c3c(cc(O)c2C(=O)O1)OC1(C)CCC(=O)C2(C)CC=C(C(C)(C)O)OC12C3 (stereo not drawn) [Compound 2, talarine L]	1.74 ± 3.81 µM	competitive inhibitors	unchanged
CC1Cc2c3c(c(Cl)c(O)c2C(=O)O1)OC1(C)CCC2(O)OC4(C(C)(C)O)CCC2(C)C1(C3)O4 (stereo not drawn) [Compound 6, talarine P]	14.3 ± 0.86 µM		
CC1OC(=O)c2c(O)c(Cl)c3c(c2C1O)CC12OC4(O)CCC1(C)C(O)(CCC2(C)O3)C4(C)C (stereo not drawn) [Compound 7, talarine Q]	15.6 ± 1.6 µM		

The next lines start with the values.

IC50 (PTP1B [1])	Type of inhibition of PTP1B (PTP1B [2])	Vmax in presence of compound (PTP1B [2])	SMILES
8.54 µM and 17.6 µM			COC1(C(C)C)CCC2(C)C(=O)CCC3(C)Oc4c(Cl)c(O)c5c(c4CC32O1)CC(C)OC5=O (stereo not drawn) [Compound 3, talarine M]
8.54 ± 1.52 µM			COC1(C(C)C)CCC2(C)C(=O)CCC3(C)Oc4cc(O)c5c(c4CC32O1)C(OC(C)=O)C(C)OC5=O (stereo not drawn) [Compound 4, talarine N]
6.57 ± 1.47 µM			CC(=O)OC1c2c3c(c(Cl)c(O)c2C(=O)OC1C)OC1(C)CCC2(O)OC4(C(C)(C)O)CCC2(C)C1(C3)O4 (stereo not drawn) [Compound 5, talarine O]
3.03 ± 2.25 µM	competitive inhibitors	unchanged	CC(=O)O[C@@H]1c2c3c(cc(O)c2C(=O)O[C@@H]1C)O[C@]1(C)CCC(=O)[C@]2(C)CC=C(C(C)C)O[C@]12C3 [Compound 12, talaromyolide J]
